Test results from patent publication US10906873B2, “Substituted cyclic amides as herbicides” (FMC Corporation, priority 2015, dated 2021).

test system: not given; experiment: not given; details: not given

Compound	melting point
O=C1NCC(Cc2cccc(Cl)c2)C1C(=O)Nc1cccc(F)c1F (stereo not drawn) [Compound 1, 4-[(3-chlorophenyl)methyl]-N-(2,3-difluorophenyl)-2-oxo-3-pyrrolidinecarboxamide]	132 to 134 °C

test system: foxtail, giant (giant foxtail, Setaria faberii); experiment: Test A preemergence, foxtail, giant; assay type: in vivo; details: 1000 g ai/ha, 0 to 100 scale
Summary of the method: (§1)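 Visual injury rating, 0–100 scale (100 = complete control), ~10 d after treatment, relative to untreated controls. Greenhouse pots, loam soil/sand; compound in solvent mix with surfactant applied as soil spray preemergence or foliar postemergence at 1–2-leaf stage.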

Compound	Plant response rating, Foxtail, Giant
O=C1NCC(Cc2cccc(Cl)c2)C1C(=O)Nc1cccc(F)c1F (stereo not drawn) [Compound 1, 4-[(3-chlorophenyl)methyl]-N-(2,3-difluorophenyl)-2-oxo-3-pyrrolidinecarboxamide]	90
O=C1NCC(Cc2cccc(Cl)c2)C1C(=O)Nc1ccccc1F (stereo not drawn) [Compound 2]	80
O=C1NCC(Cc2ccccc2)C1C(=O)Nc1ccccc1F (stereo not drawn) [Compound 3]	0

test system: morningglory (Ipomoea spp.); experiment: Test A preemergence, morningglory; assay type: in vivo; details: 1000 g ai/ha, 0 to 100 scale
Text: (§2) Seeds of plant species selected from barnyardgrass (Echinochloa crus-galli), crabgrass (large crabgrass, Digitaria sanguinalis), kochia (Kochia scoparia), ragweed (common ragweed, Ambrosia elatior), morningglory (Ipomoea spp.), velvetleaf (Abutilon theophrasti), ryegrass, It. (Italian ryegrass, Lolium multiflorum), foxtail, giant (giant foxtail, Setaria faberii), wheat (Triticum aestivum), corn (Zea mays), and pigweed (Amaranthus retroflexus), were planted into a blend of loam soil and sand and treated preemergence with a directed soil spray using test chemicals formulated in a non-phytotoxic solvent mixture which included a surfactant. At the same time, plants selected from these crop and weed species and also blackgrass (Alopecurus myosuroides), and galium (catchweed bedstraw, Galium aparine), were planted in pots containing the same blend of loam soil and sand and treated with postemergence applications of test chemicals formulated in the same manner. Plants ranged in height from 2 to 10 cm and were in the one- to two-leaf stage for the postemergence treatment. Treated plants and untreated controls were maintained in a greenhouse for approximately 10 d, after which time all treated plants were compared to untreated controls and visually evaluated for injury. Plant response ratings, summarized in Table A, are based on a 0 to 100 scale where 0 is no effect and 100 is complete control. A dash (-) response means no test result.

Compound	Plant response rating, Morningglory
O=C1NCC(Cc2cccc(Cl)c2)C1C(=O)Nc1cccc(F)c1F (stereo not drawn) [Compound 1, 4-[(3-chlorophenyl)methyl]-N-(2,3-difluorophenyl)-2-oxo-3-pyrrolidinecarboxamide]	0
O=C1NCC(Cc2cccc(Cl)c2)C1C(=O)Nc1ccccc1F (stereo not drawn) [Compound 2]	0
O=C1NCC(Cc2ccccc2)C1C(=O)Nc1ccccc1F (stereo not drawn) [Compound 3]	0

test system: foxtail, giant (giant foxtail, Setaria faberii); experiment: Test A postemergence, foxtail, giant; assay type: in vivo; details: 1000 g ai/ha, 0 to 100 scale
Summary of the method: as §1

Compound	Plant response rating, Foxtail, Giant
O=C1NCC(Cc2cccc(Cl)c2)C1C(=O)Nc1cccc(F)c1F (stereo not drawn) [Compound 1, 4-[(3-chlorophenyl)methyl]-N-(2,3-difluorophenyl)-2-oxo-3-pyrrolidinecarboxamide]	80
O=C1NCC(Cc2cccc(Cl)c2)C1C(=O)Nc1ccccc1F (stereo not drawn) [Compound 2]	60
O=C1NCC(Cc2ccccc2)C1C(=O)Nc1ccccc1F (stereo not drawn) [Compound 3]	0

test system: barnyardgrass (Echinochloa crus-galli); experiment: Test A preemergence, barnyardgrass; assay type: in vivo; details: 1000 g ai/ha, 0 to 100 scale
Summary of the method: as §1

Compound	Plant response rating, Barnyardgrass
O=C1NCC(Cc2cccc(Cl)c2)C1C(=O)Nc1cccc(F)c1F (stereo not drawn) [Compound 1, 4-[(3-chlorophenyl)methyl]-N-(2,3-difluorophenyl)-2-oxo-3-pyrrolidinecarboxamide]	70
O=C1NCC(Cc2cccc(Cl)c2)C1C(=O)Nc1ccccc1F (stereo not drawn) [Compound 2]	30
O=C1NCC(Cc2ccccc2)C1C(=O)Nc1ccccc1F (stereo not drawn) [Compound 3]	0

test system: velvetleaf (Abutilon theophrasti); experiment: Test A postemergence, velvetleaf; assay type: in vivo; details: 1000 g ai/ha, 0 to 100 scale
Text: as §2

Compound	Plant response rating, Velvetleaf
O=C1NCC(Cc2cccc(Cl)c2)C1C(=O)Nc1cccc(F)c1F (stereo not drawn) [Compound 1, 4-[(3-chlorophenyl)methyl]-N-(2,3-difluorophenyl)-2-oxo-3-pyrrolidinecarboxamide]	10
O=C1NCC(Cc2cccc(Cl)c2)C1C(=O)Nc1ccccc1F (stereo not drawn) [Compound 2]	0
O=C1NCC(Cc2ccccc2)C1C(=O)Nc1ccccc1F (stereo not drawn) [Compound 3]	0

test system: wheat (Triticum aestivum); experiment: Test A postemergence, wheat; assay type: in vivo; details: 1000 g ai/ha, 0 to 100 scale
Summary of the method: as §1

Compound	Plant response rating, Wheat
O=C1NCC(Cc2cccc(Cl)c2)C1C(=O)Nc1cccc(F)c1F (stereo not drawn) [Compound 1, 4-[(3-chlorophenyl)methyl]-N-(2,3-difluorophenyl)-2-oxo-3-pyrrolidinecarboxamide]	0
O=C1NCC(Cc2cccc(Cl)c2)C1C(=O)Nc1ccccc1F (stereo not drawn) [Compound 2]	0
O=C1NCC(Cc2ccccc2)C1C(=O)Nc1ccccc1F (stereo not drawn) [Compound 3]	0

test system: velvetleaf (Abutilon theophrasti); experiment: Test A preemergence, velvetleaf; assay type: in vivo; details: 1000 g ai/ha, 0 to 100 scale
Text: as §2

Compound	Plant response rating, Velvetleaf
O=C1NCC(Cc2cccc(Cl)c2)C1C(=O)Nc1cccc(F)c1F (stereo not drawn) [Compound 1, 4-[(3-chlorophenyl)methyl]-N-(2,3-difluorophenyl)-2-oxo-3-pyrrolidinecarboxamide]	0
O=C1NCC(Cc2cccc(Cl)c2)C1C(=O)Nc1ccccc1F (stereo not drawn) [Compound 2]	0
O=C1NCC(Cc2ccccc2)C1C(=O)Nc1ccccc1F (stereo not drawn) [Compound 3]	0

test system: barnyardgrass (Echinochloa crus-galli); experiment: Test B flooded paddy test, barnyardgrass; assay type: in vivo; details: Flood, 1000 g ai/ha; scale of 0 to 100 where 0 is no effect and 100 is complete control; 13 to 15 d
Summary of the method: (§3)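 Plants grown to the 2-leaf stage. At treatment, pots were flooded to 3 cm above the soil, compound was applied directly to the paddy water, and that depth was held throughout. After 13 to 15 d in the greenhouse, response was rated visually against controls on a 0 (no effect) to 100 (complete control) scale.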

Compound	Plant response rating, Barnyardgrass
O=C1NCC(Cc2cccc(Cl)c2)C1C(=O)Nc1cccc(F)c1F (stereo not drawn) [Compound 1, 4-[(3-chlorophenyl)methyl]-N-(2,3-difluorophenyl)-2-oxo-3-pyrrolidinecarboxamide]	0
O=C1NCC(Cc2cccc(Cl)c2)C1C(=O)Nc1ccccc1F (stereo not drawn) [Compound 2]	0

test system: ducksalad (Heteranthera limosa); experiment: Test B flooded paddy test, ducksalad; assay type: in vivo; details: Flood, 1000 g ai/ha; scale of 0 to 100 where 0 is no effect and 100 is complete control; 13 to 15 d
Summary of the method: as §3

Compound	Plant response rating, Ducksalad
O=C1NCC(Cc2cccc(Cl)c2)C1C(=O)Nc1cccc(F)c1F (stereo not drawn) [Compound 1, 4-[(3-chlorophenyl)methyl]-N-(2,3-difluorophenyl)-2-oxo-3-pyrrolidinecarboxamide]	50
O=C1NCC(Cc2cccc(Cl)c2)C1C(=O)Nc1ccccc1F (stereo not drawn) [Compound 2]	0

test system: pigweed (Amaranthus retroflexus); experiment: Test A preemergence, pigweed; assay type: in vivo; details: 1000 g ai/ha, 0 to 100 scale
Summary of the method: as §1

Compound	Plant response rating, Pigweed
O=C1NCC(Cc2cccc(Cl)c2)C1C(=O)Nc1cccc(F)c1F (stereo not drawn) [Compound 1, 4-[(3-chlorophenyl)methyl]-N-(2,3-difluorophenyl)-2-oxo-3-pyrrolidinecarboxamide]	0
O=C1NCC(Cc2cccc(Cl)c2)C1C(=O)Nc1ccccc1F (stereo not drawn) [Compound 2]	0
O=C1NCC(Cc2ccccc2)C1C(=O)Nc1ccccc1F (stereo not drawn) [Compound 3]	0

test system: sedge, umbrella (small-flower umbrella sedge, Cyperus difformis); experiment: Test B flooded paddy test, sedge, umbrella; assay type: in vivo; details: Flood, 1000 g ai/ha; scale of 0 to 100 where 0 is no effect and 100 is complete control; 13 to 15 d
Summary of the method: as §3

Compound	Plant response rating, Sedge, Umbrella
O=C1NCC(Cc2cccc(Cl)c2)C1C(=O)Nc1cccc(F)c1F (stereo not drawn) [Compound 1, 4-[(3-chlorophenyl)methyl]-N-(2,3-difluorophenyl)-2-oxo-3-pyrrolidinecarboxamide]	0
O=C1NCC(Cc2cccc(Cl)c2)C1C(=O)Nc1ccccc1F (stereo not drawn) [Compound 2]	0

test system: rice (Oryza sativa); experiment: Test B flooded paddy test, rice; assay type: in vivo; details: Flood, 1000 g ai/ha; scale of 0 to 100 where 0 is no effect and 100 is complete control; 13 to 15 d
Summary of the method: as §3

Compound	Plant response rating, Rice
O=C1NCC(Cc2cccc(Cl)c2)C1C(=O)Nc1cccc(F)c1F (stereo not drawn) [Compound 1, 4-[(3-chlorophenyl)methyl]-N-(2,3-difluorophenyl)-2-oxo-3-pyrrolidinecarboxamide]	0
O=C1NCC(Cc2cccc(Cl)c2)C1C(=O)Nc1ccccc1F (stereo not drawn) [Compound 2]	0

test system: barnyardgrass (Echinochloa crus-galli); experiment: Test A postemergence, barnyardgrass; assay type: in vivo; details: 1000 g ai/ha, 0 to 100 scale (0 no effect, 100 complete control)
Summary of the method: as §1

Compound	Plant response rating, Barnyardgrass
O=C1NCC(Cc2cccc(Cl)c2)C1C(=O)Nc1cccc(F)c1F (stereo not drawn) [Compound 1, 4-[(3-chlorophenyl)methyl]-N-(2,3-difluorophenyl)-2-oxo-3-pyrrolidinecarboxamide]	80
O=C1NCC(Cc2cccc(Cl)c2)C1C(=O)Nc1ccccc1F (stereo not drawn) [Compound 2]	30
O=C1NCC(Cc2ccccc2)C1C(=O)Nc1ccccc1F (stereo not drawn) [Compound 3]	0

test system: morningglory (Ipomoea spp.); experiment: Test A postemergence, morningglory; assay type: in vivo; details: 1000 g ai/ha, 0 to 100 scale
Text: as §2

Compound	Plant response rating, Morningglory
O=C1NCC(Cc2cccc(Cl)c2)C1C(=O)Nc1cccc(F)c1F (stereo not drawn) [Compound 1, 4-[(3-chlorophenyl)methyl]-N-(2,3-difluorophenyl)-2-oxo-3-pyrrolidinecarboxamide]	0
O=C1NCC(Cc2cccc(Cl)c2)C1C(=O)Nc1ccccc1F (stereo not drawn) [Compound 2]	0
O=C1NCC(Cc2ccccc2)C1C(=O)Nc1ccccc1F (stereo not drawn) [Compound 3]	0

test system: wheat (Triticum aestivum); experiment: Test A preemergence, wheat; assay type: in vivo; details: 1000 g ai/ha, 0 to 100 scale
Text: as §2

Compound	Plant response rating, Wheat
O=C1NCC(Cc2cccc(Cl)c2)C1C(=O)Nc1cccc(F)c1F (stereo not drawn) [Compound 1, 4-[(3-chlorophenyl)methyl]-N-(2,3-difluorophenyl)-2-oxo-3-pyrrolidinecarboxamide]	0
O=C1NCC(Cc2cccc(Cl)c2)C1C(=O)Nc1ccccc1F (stereo not drawn) [Compound 2]	0
O=C1NCC(Cc2ccccc2)C1C(=O)Nc1ccccc1F (stereo not drawn) [Compound 3]	0

test system: pigweed (Amaranthus retroflexus); experiment: Test A postemergence, pigweed; assay type: in vivo; details: 1000 g ai/ha, 0 to 100 scale
Summary of the method: as §1

Compound	Plant response rating, Pigweed
O=C1NCC(Cc2cccc(Cl)c2)C1C(=O)Nc1cccc(F)c1F (stereo not drawn) [Compound 1, 4-[(3-chlorophenyl)methyl]-N-(2,3-difluorophenyl)-2-oxo-3-pyrrolidinecarboxamide]	0
O=C1NCC(Cc2cccc(Cl)c2)C1C(=O)Nc1ccccc1F (stereo not drawn) [Compound 2]	0
O=C1NCC(Cc2ccccc2)C1C(=O)Nc1ccccc1F (stereo not drawn) [Compound 3]	0

test system: crabgrass (large crabgrass, Digitaria sanguinalis); experiment: Test A preemergence, crabgrass; assay type: in vivo; details: 1000 g ai/ha, 0 to 100 scale
Text: as §2

Compound	Plant response rating, Crabgrass
O=C1NCC(Cc2cccc(Cl)c2)C1C(=O)Nc1cccc(F)c1F (stereo not drawn) [Compound 1, 4-[(3-chlorophenyl)methyl]-N-(2,3-difluorophenyl)-2-oxo-3-pyrrolidinecarboxamide]	90
O=C1NCC(Cc2cccc(Cl)c2)C1C(=O)Nc1ccccc1F (stereo not drawn) [Compound 2]	90
O=C1NCC(Cc2ccccc2)C1C(=O)Nc1ccccc1F (stereo not drawn) [Compound 3]	0

test system: corn (Zea mays); experiment: Test A preemergence, corn; assay type: in vivo; details: 1000 g ai/ha, 0 to 100 scale
Text: as §2

Compound	Plant response rating, Corn
O=C1NCC(Cc2cccc(Cl)c2)C1C(=O)Nc1cccc(F)c1F (stereo not drawn) [Compound 1, 4-[(3-chlorophenyl)methyl]-N-(2,3-difluorophenyl)-2-oxo-3-pyrrolidinecarboxamide]	0
O=C1NCC(Cc2cccc(Cl)c2)C1C(=O)Nc1ccccc1F (stereo not drawn) [Compound 2]	0
O=C1NCC(Cc2ccccc2)C1C(=O)Nc1ccccc1F (stereo not drawn) [Compound 3]	0

test system: crabgrass (large crabgrass, Digitaria sanguinalis); experiment: Test A postemergence, crabgrass; assay type: in vivo; details: 1000 g ai/ha, 0 to 100 scale
Text: as §2

Compound	Plant response rating, Crabgrass
O=C1NCC(Cc2cccc(Cl)c2)C1C(=O)Nc1cccc(F)c1F (stereo not drawn) [Compound 1, 4-[(3-chlorophenyl)methyl]-N-(2,3-difluorophenyl)-2-oxo-3-pyrrolidinecarboxamide]	80
O=C1NCC(Cc2cccc(Cl)c2)C1C(=O)Nc1ccccc1F (stereo not drawn) [Compound 2]	80
O=C1NCC(Cc2ccccc2)C1C(=O)Nc1ccccc1F (stereo not drawn) [Compound 3]	0

test system: corn (Zea mays); experiment: Test A postemergence, corn; assay type: in vivo; details: 1000 g ai/ha, 0 to 100 scale
Summary of the method: as §1

Compound	Plant response rating, Corn
O=C1NCC(Cc2cccc(Cl)c2)C1C(=O)Nc1cccc(F)c1F (stereo not drawn) [Compound 1, 4-[(3-chlorophenyl)methyl]-N-(2,3-difluorophenyl)-2-oxo-3-pyrrolidinecarboxamide]	0
O=C1NCC(Cc2cccc(Cl)c2)C1C(=O)Nc1ccccc1F (stereo not drawn) [Compound 2]	0
O=C1NCC(Cc2ccccc2)C1C(=O)Nc1ccccc1F (stereo not drawn) [Compound 3]	0
